US20150225762A1, “SAME-DAY BLOOD CULTURE WITH DIGITAL MICROSCOPY” (ACCELERATE DIAGNOSTICS, INC., priority 2012, published 2015)

What was measured:
Ecol 35218 [1] = experiment: Plate count of live bacteria after killing treatment; assay type: cell-based, E. coli
Paer 27853 [2] = experiment: as above; assay type: cell-based, P. aeruginosa
Saur 12600 [3] = experiment: as above; assay type: cell-based, S. aureus
Ecol 35218 [4] = experiment: FISH detection of live and killed bacteria with or without protease digestion; assay type: cell-based, E. coli
Kpne 13882 [5] = experiment: as above; assay type: cell-based, K. pneumoniae
Paer 27853 [6] = experiment: as above; assay type: cell-based, P. aeruginosa
Saur 12600 [7] = experiment: as above; assay type: cell-based, S. aureus
Kpne 13882 [8] = experiment: Plate count of live bacteria after killing treatment
E. coli = experiment: Protease-dependent bacterial growth inhibition in rapid blood culture (plating); assay type: cell-based; details: for Overall rate / Fold Growth: 6 hour run; for Fold Growth: over starting number
Protocol: Blood culture samples were treated with two different concentrations of protease to determine if protease used at a high concentration could produce inhibition of bacterial growth. Identification of a protease concentration dependent inhibitory effect on the growth rate of microbial cells is an important component of optimization of a rapid blood culture method. Growth of E. coli in simulated bacteremic blood cultures treated with a working protease concentration (0.2 mg/mL) and high protease concentration (20 mg/mL) was compared over a six (6) hour growth and digestion period.
A mock blood culture specimen was created by addition of 10 mL of blood to a BioMerieux BacT/Alert Standard Aerobic bottle. A 1.0 mL portion of this specimen was used for each condition. Each sample was treated with saponin to a final concentration of 4 mg/mL and SPS to a final concentration of 0.96 mg/mL. Samples were then spiked with E. coli bacteria to a final concentration of 1×10^2 cfu/mL. The samples were treated with a Pronase solution containing either 0.2 mg/mL or 20 mg/mL. Samples were incubated at 35° C. with agitation for 6 hours. A portion of each sample was removed for concentration determination at 2 hour time points during the incubation. The sampled bacteria were plated in 10-fold dilution series to determine the concentration of bacteria at each time point. Interval-by-interval growth rates, overall growth rate, and fold increase versus the starting concentration were determined using the calculated concentrations at each time point.

[9] = 0 hr, after gentamycin 100 micrograms per mL 1 hour or 80% ethanol
[10] = gentamycin 1 hour or 80% ethanol
[11] = 1 hour, with protease (0.2 mg/mL Pronase)
[12] = 1 hour, with protease (0.2 mg/mL Pronase), cells live or pre-killed as labelled
[13] = 4 hour, with protease (0.2 mg/mL Pronase)
[14] = 4 hour, with protease (0.2 mg/mL Pronase), cells live or pre-killed as labelled
[15] = High protease (20 mg/mL Pronase)
[16] = Low protease (0.2 mg/mL Pronase)

## CCO [Ethanol, ethanol]
Ecol 35218 [1]; [9]
  Conc of live bacteria by plating: <10 cfu/mL
Ecol 35218 [1]; [10]
  Killing by plating, in words: no viable cells
Paer 27853 [2]; [9]
  Conc of live bacteria by plating: <10 cfu/mL
Paer 27853 [2]; [10]
  Killing by plating, in words: no viable cells
Saur 12600 [3]; [9]
  Conc of live bacteria by plating: <10 cfu/mL
Saur 12600 [3]; [10]
  Killing by plating, in words: no viable cells
Ecol 35218 [4]; 1 hour, no protease
  FISH Conc: 4.3 × 10^4 cells/mL
  Positive Detection?: Yes (A detection threshold of 1×10^4 cells per mL was used as the threshold for a positive call in the FISH assay)
Ecol 35218 [4]; [11]
  Positive Detection?: No (A detection threshold of 1×10^4 cells per mL was used as the threshold for a positive call in the FISH assay)
Ecol 35218 [4]; [12]
  FISH Conc: 3.3 × 10^3 cells/mL
Ecol 35218 [4]; 4 hour, no protease
  FISH Conc: 3.7 × 10^4 cells/mL
  Positive Detection?: Yes (A detection threshold of 1×10^4 cells per mL was used as the threshold for a positive call in the FISH assay)
Ecol 35218 [4]; [13]
  Positive Detection?: No (A detection threshold of 1×10^4 cells per mL was used as the threshold for a positive call in the FISH assay)
Ecol 35218 [4]; [14]
  FISH Conc: 6.7 × 10^3 cells/mL
Kpne 13882 [5]; 1 hour, no protease
  FISH Conc: 4.9 × 10^5 cells/mL
  Positive Detection?: Yes (A detection threshold of 1×10^4 cells per mL was used as the threshold for a positive call in the FISH assay)
Kpne 13882 [5]; [11]
  Positive Detection?: Yes (A detection threshold of 1×10^4 cells per mL was used as the threshold for a positive call in the FISH assay)
Kpne 13882 [5]; [12]
  FISH Conc: 6.8 × 10^5 cells/mL
Kpne 13882 [5]; 4 hour, no protease
  FISH Conc: 4.1 × 10^5 cells/mL
  Positive Detection?: Yes (A detection threshold of 1×10^4 cells per mL was used as the threshold for a positive call in the FISH assay)
Kpne 13882 [5]; [13]
  Positive Detection?: Yes (A detection threshold of 1×10^4 cells per mL was used as the threshold for a positive call in the FISH assay)
Kpne 13882 [5]; [14]
  FISH Conc: 2.8 × 10^5 cells/mL
Paer 27853 [6]; 1 hour, no protease
  FISH Conc: 3.0 × 10^5 cells/mL
  Positive Detection?: Yes (A detection threshold of 1×10^4 cells per mL was used as the threshold for a positive call in the FISH assay)
Paer 27853 [6]; [11]
  Positive Detection?: No (A detection threshold of 1×10^4 cells per mL was used as the threshold for a positive call in the FISH assay)
Paer 27853 [6]; [12]
  FISH Conc: 6.7 × 10^3 cells/mL
Paer 27853 [6]; 4 hour, no protease
  FISH Conc: 1.3 × 10^5 cells/mL
  Positive Detection?: Yes (A detection threshold of 1×10^4 cells per mL was used as the threshold for a positive call in the FISH assay)
Paer 27853 [6]; [13]
  Positive Detection?: No (A detection threshold of 1×10^4 cells per mL was used as the threshold for a positive call in the FISH assay)
Paer 27853 [6]; [14]
  FISH Conc: <1 × 10^3 cells/mL
Saur 12600 [7]; 1 hour, no protease
  FISH Conc: 3.4 × 10^5 cells/mL
  Positive Detection?: Yes (A detection threshold of 1×10^4 cells per mL was used as the threshold for a positive call in the FISH assay)
Saur 12600 [7]; [11]
  Positive Detection?: Yes (A detection threshold of 1×10^4 cells per mL was used as the threshold for a positive call in the FISH assay)
Saur 12600 [7]; [12]
  FISH Conc: 2.5 × 10^5 cells/mL
Saur 12600 [7]; 4 hour, no protease
  FISH Conc: 1.9 × 10^5 cells/mL
  Positive Detection?: Yes (A detection threshold of 1×10^4 cells per mL was used as the threshold for a positive call in the FISH assay)
Saur 12600 [7]; [13]
  Positive Detection?: Yes (A detection threshold of 1×10^4 cells per mL was used as the threshold for a positive call in the FISH assay)
Saur 12600 [7]; [14]
  FISH Conc: 1.2 × 10^5 cells/mL
Kpne 13882 [8]; [9]
  Conc of live bacteria by plating: <10 cfu/mL
Kpne 13882 [8]; [10]
  Killing by plating, in words: no viable cells

## Pronase [Protease]
E. coli; 20 mg/mL versus 0.2 mg/mL, 6 hour incubation
  lower overall increase with the higher concentration of protease: approximately 8.5 fold
E. coli; [15]
  Calculated growth rate 0→2 Hours: 0.70
  Calculated growth rate 2→4 Hours: 2.74
  Calculated growth rate 4→6 Hours: 2.22
  Overall rate: 1.89
  Fold Growth: 2,600
E. coli; High protease (20 mg/mL Pronase), 2 hr
  Conc of bacteria: 2.7 × 10^2 cfu/mL
E. coli; High protease (20 mg/mL Pronase), 4 hr
  Conc of bacteria: 1.2 × 10^4 cfu/mL
E. coli; High protease (20 mg/mL Pronase), 6 hr
  Conc of bacteria: 2.6 × 10^5 cfu/mL
E. coli; [16]
  Calculated growth rate 0→2 Hours: 0.60
  Calculated growth rate 2→4 Hours: 2.96
  Calculated growth rate 4→6 Hours: 3.65
  Overall rate: 2.40
  Fold Growth: 22,000
E. coli; Low protease (0.2 mg/mL Pronase), 2 hr
  Conc of bacteria: 2.3 × 10^2 cfu/mL
E. coli; Low protease (0.2 mg/mL Pronase), 4 hr
  Conc of bacteria: 1.4 × 10^4 cfu/mL
E. coli; Low protease (0.2 mg/mL Pronase), 6 hr
  Conc of bacteria: 2.2 × 10^6 cfu/mL
Ecol 35218 [4]; [11]
  Positive Detection?: Yes (A detection threshold of 1×10^4 cells per mL was used as the threshold for a positive call in the FISH assay)
Ecol 35218 [4]; [12]
  FISH Conc: 2.3 × 10^6 cells/mL
Ecol 35218 [4]; [13]
  Positive Detection?: Yes (A detection threshold of 1×10^4 cells per mL was used as the threshold for a positive call in the FISH assay)
Ecol 35218 [4]; [14]
  FISH Conc: 1.8 × 10^7 cells/mL
Kpne 13882 [5]; [11]
  Positive Detection?: Yes (A detection threshold of 1×10^4 cells per mL was used as the threshold for a positive call in the FISH assay)
Kpne 13882 [5]; [12]
  FISH Conc: 7.7 × 10^4 cells/mL
Kpne 13882 [5]; [13]
  Positive Detection?: Yes (A detection threshold of 1×10^4 cells per mL was used as the threshold for a positive call in the FISH assay)
Kpne 13882 [5]; [14]
  FISH Conc: 4.3 × 10^6 cells/mL
Paer 27853 [6]; [11]
  Positive Detection?: Yes (A detection threshold of 1×10^4 cells per mL was used as the threshold for a positive call in the FISH assay)
Paer 27853 [6]; [12]
  FISH Conc: 9.0 × 10^4 cells/mL
Paer 27853 [6]; [13]
  Positive Detection?: Yes (A detection threshold of 1×10^4 cells per mL was used as the threshold for a positive call in the FISH assay)
Paer 27853 [6]; [14]
  FISH Conc: 5.9 × 10^6 cells/mL
Saur 12600 [7]; [11]
  Positive Detection?: Yes (A detection threshold of 1×10^4 cells per mL was used as the threshold for a positive call in the FISH assay)
Saur 12600 [7]; [12]
  FISH Conc: 1.6 × 10^6 cells/mL
Saur 12600 [7]; [13]
  Positive Detection?: Yes (A detection threshold of 1×10^4 cells per mL was used as the threshold for a positive call in the FISH assay)
Saur 12600 [7]; [14]
  FISH Conc: 4.2 × 10^7 cells/mL
